In patent publication US20240182449A1, “CRYSTALLINE FORMS OF AN MK2 INHIBITOR” (XinThera, Inc., priority 2022, published 2024):

What was measured:
[1] = Salt screening with strong acids (chemical stability, HPLC purity); format: physicochemical
Experimental: A salt screening was conducted with 6 pharmaceutically acceptable strong acids. About 25 mg of compound 1 was weighed into a 1.5-mL glass vial, then 1.1 eq. of selected acid was weighted into the above glass vial. Liquid strong acid was pre-diluted in corresponding solvent. After addition of 0.5 mL solvent, the mixture was stirred at RT for 24 h. 0.5 mL more solvent was added to dilute several viscous systems at 4 h (highlighted as * in the summary table). If no solid was obtained, anti-solvent of heptane was added into the filtrates gradually at RT to induce precipitation (highlighted as ** in the summary table). The suspensions were filtered and the solids were vacuum dried at 40° C. for 4 h.
HPLC results (Table 33) confirmed significant purity decrease by>15%.

[2] = Slurry competition experiments (thermodynamic stability relationship); format: physicochemical; settings: RT
Experimental: Slurry competition experiments were carried out between anhydrous and hydrates, to establish stability relationships. Appropriate amount of Form I was suspended in different solvents for pre-saturation at RT. Then the filtrate was added into equal amount of different forms, and the mixture was kept stirring at RT for certain time before XRPD tests.

[3] = Slurry conversion of Form I and Form X in solvents (XRPD result); format: physicochemical; settings: for XRPD Result-Day 3: slurry at 80° C.
Experimental: Appropriate amount of Form I was added into different solvents to make suspensions, which were kept stirring at RT and 50° C. for 3 and 7 days, and at 80° C. for 3 days. Solid samples were collected by centrifugation and analyzed by XRPD. Forms I-IV, VII and VIII were obtained by slurry experiments of Form I.
Appropriate amount of Form X was added into different solvents to make suspensions, which were kept stirring at RT and 50° C. for 3 and 7 days, and at 80° C. for 3 days. Solid samples were collected by centrifugation and analyzed by XRPD.

[4] = Solubility estimation at RT by visual observation in selected solvent systems; settings: RT
Experimental: The solubility of compound 1 Form I and Form X was estimated at RT by visual observation in selected solvent systems. Approximately 5 mg solids were weighed into 8 mL glass vial, and then solvent was added stepwise until solids were dissolved completely or a total of solvent volume reached 5 mL.

[5] = Slurry conversion of Form I and Form X in solvents (XRPD result); format: physicochemical; settings: slurry at RT, Toluene
[6] = slurry at 50° C., 2-MeTHF/CYH (1/4)
[7] = slurry at 50° C., ACN/water (1/9)
[8] = slurry at 50° C., Acetone/water (1/4)
[9] = slurry at 50° C., IPAc/heptane (1/4)
[10] = slurry at 50° C., IPE/water (200/1)
[11] = slurry at 50° C., Toluene/heptane (1/4)
[12] = slurry at RT, Acetone/water (1/4)
[13] = slurry at RT, IPAc/heptane (1/4)
[14] = slurry at RT, IPE/water (200/1)
[15] = slurry at RT, Toluene/heptane (1/4)

Which “chemical stability under strong acidic conditions” value ([1]; salt screening with 6 strong acids) does the source give for [2H]C([2H])(Oc1cc(C)n(-c2c(C)cnc(-n3ccc(C(C)(C)O)n3)c2F)c(=O)c1Cl)c1ncc(F)cc1F (atropisomer, axis not shown; (M)) [compound 1, (M)-3-chloro-4-((3,5-difluoropyridin-2-yl)methoxy-d2)-3′-fluoro-2′-(3-(2-hydroxypropan-2-yl)-1H-pyrazol-1-yl)-5′,6-dimethyl-2H-[1,4′-bipyridin]-2-one] here?
Its value is “chemically unstable”.

With [2H]C([2H])(Oc1cc(C)n(-c2c(C)cnc(-n3ccc(C(C)(C)O)n3)c2F)c(=O)c1Cl)c1ncc(F)cc1F [Form I + IV] as the compound, how does the “Output of competitive slurry (XRPD)” value ([2]; Water, 3 d) read?
Its value is “Form IV”.

And the “Output of competitive slurry (XRPD)” value ([2]; Water/MeOH (9/1), 3 d)?
The value was “Form IV + IX”.

And the “Output of competitive slurry (XRPD)” value ([2]; Water/MeOH (19/1), 3 d)?
The value was “Form IV + IX”.

With [2H]C([2H])(Oc1cc(C)n(-c2c(C)cnc(-n3ccc(C(C)(C)O)n3)c2F)c(=O)c1Cl)c1ncc(F)cc1F [Form I, starting material] as the compound, how does the “Purity (area %)” value ([1]; salt screening samples, HPLC, chemical stability under strong acid) read?
Its value is 99.29 area %.

What does the source list for [2H]C([2H])(Oc1cc(C)n(-c2c(C)cnc(-n3ccc(C(C)(C)O)n3)c2F)c(=O)c1Cl)c1ncc(F)cc1F [Form IV + IX]?
Output of competitive slurry (XRPD) ([2]; Water, 3 d): Form X + IV (trace); Output of competitive slurry (XRPD) ([2]; Water/MeOH (9/1), 3 d): Form X + IV; Output of competitive slurry (XRPD) ([2]; Water/MeOH (17/3), 3 d): Form X; Output of competitive slurry (XRPD) ([2]; Water/MeOH (19/1), 3 d): Form X

For [2H]C([2H])(Oc1cc(C)n(-c2c(C)cnc(-n3ccc(C(C)(C)O)n3)c2F)c(=O)c1Cl)c1ncc(F)cc1F [Form IV + X], which “Output of competitive slurry (XRPD)” value ([2]; Water, 2 d) is on record?
The value was “Form X”.

For [2H]C([2H])(Oc1cc(C)n(-c2c(C)cnc(-n3ccc(C(C)(C)O)n3)c2F)c(=O)c1Cl)c1ncc(F)cc1F [Form I], which “XRPD Result Day 3” value [3, 6] is on record?
The value was “Form VII”.

And the “XRPD Result Day 7” value [3, 6]?
Its value is “Form III”.

What about the “XRPD Result Day 3” value [3, 7] of the same compound?
Its value is “Form IV”.

And the “XRPD Result Day 7” value [3, 7]?
The value was “Form IV”.

What about the “XRPD Result Day 3” value [3, 8] of the same compound?
The value was “Form IV”.

What about the “XRPD Result Day 7” value [3, 8] of the same compound?
Its value is “Form IV”.

What about the “XRPD Result Day 3” value ([3]; slurry at 50° C., CYH) of the same compound?
Its value is “Form IV”.

And the “XRPD Result Day 7” value ([3]; slurry at 50° C., CYH)?
Its value is “Form IV”.

What about the “XRPD Result Day 3” value ([3]; slurry at 50° C., Heptane) of the same compound?
Its value is “Form IV”.

And the “XRPD Result Day 7” value ([3]; slurry at 50° C., Heptane)?
The value was “Form IV”.

And the “XRPD Result Day 3” value [3, 9]?
The value was “Form IV + VIII”.

And the “XRPD Result Day 7” value [3, 9]?
The value was “Form IV + VIII”.

And the “XRPD Result Day 3” value ([3]; slurry at 50° C., IPE)?
Its value is “Form IV”.

What about the “XRPD Result Day 7” value ([3]; slurry at 50° C., IPE) of the same compound?
Its value is “Form IV + VIII”.

And the “XRPD Result Day 3” value [3, 10]?
The value was “Form IV”.

And the “XRPD Result Day 7” value [3, 10]?
Its value is “Form IV”.

What about the “XRPD Result Day 3” value ([3]; slurry at 50° C., MTBE) of the same compound?
Its value is “Form III”.

And the “XRPD Result Day 7” value ([3]; slurry at 50° C., MTBE)?
Its value is “Form III”.

And the “XRPD Result Day 3” value ([3]; slurry at 50° C., MeCYH)?
The value was “Form IV”.

And the “XRPD Result Day 7” value ([3]; slurry at 50° C., MeCYH)?
Its value is “Form IV”.

And the “XRPD Result Day 3” value ([3]; slurry at 50° C., Toluene)?
The value was “Clear”.

And the “XRPD Result Day 7” value ([3]; slurry at 50° C., Toluene)?
Its value is “Clear”.

What about the “XRPD Result Day 3” value [3, 11] of the same compound?
Its value is “Form IV”.

And the “XRPD Result Day 7” value [3, 11]?
The value was “Form IV”.

What about the “XRPD Result Day 3” value ([3]; slurry at 50° C., Water) of the same compound?
Its value is “Form IV”.

And the “XRPD Result Day 7” value ([3]; slurry at 50° C., Water)?
Its value is “Form IV”.

What about the “XRPD Result-Day 3” value ([3]; CYH) of the same compound?
The value was “Form VIII”.

What about the “XRPD Result-Day 3” value ([3]; Heptane) of the same compound?
Its value is “Form VIII”.

What about the “XRPD Result-Day 3” value ([3]; MeCYH) of the same compound?
Its value is “Form VIII”.

And the “XRPD Result-Day 3” value ([3]; Water)?
The value was “Form IV”.

What about the “XRPD Result Day 3” value ([3]; slurry at RT, ACN/water (1/9)) of the same compound?
Its value is “Form IV”.

What about the “XRPD Result Day 7” value ([3]; slurry at RT, ACN/water (1/9)) of the same compound?
The value was “Form IV”.

And the “XRPD Result Day 3” value [3, 12]?
The value was “Form VII”.

What about the “XRPD Result Day 7” value [3, 12] of the same compound?
Its value is “Form VII”.

And the “XRPD Result Day 3” value ([3]; slurry at RT, CYH)?
The value was “Form I”.

And the “XRPD Result Day 7” value ([3]; slurry at RT, CYH)?
The value was “Form I”.

What about the “XRPD Result Day 3” value ([3]; slurry at RT, Heptane) of the same compound?
The value was “Form I”.

And the “XRPD Result Day 7” value ([3]; slurry at RT, Heptane)?
The value was “Form I”.

What about the “XRPD Result Day 3” value [3, 13] of the same compound?
The value was “Form IV”.

What about the “XRPD Result Day 7” value [3, 13] of the same compound?
The value was “Form IV”.

What about the “XRPD Result Day 3” value [3, 14] of the same compound?
Its value is “Form IV”.

And the “XRPD Result Day 7” value [3, 14]?
Its value is “Form IV”.

What about the “XRPD Result Day 3” value ([3]; slurry at RT, MTBE) of the same compound?
The value was “Form III”.

And the “XRPD Result Day 7” value ([3]; slurry at RT, MTBE)?
Its value is “Form III”.

What about the “XRPD Result Day 3” value ([3]; slurry at RT, MeCYH) of the same compound?
The value was “Form I”.

What about the “XRPD Result Day 7” value ([3]; slurry at RT, MeCYH) of the same compound?
The value was “Form I”.

What about the “XRPD Result Day 3” value ([3]; slurry at RT, Toluene) of the same compound?
Its value is “Gel-like on the wall”.

What about the “XRPD Result Day 7” value ([3]; slurry at RT, Toluene) of the same compound?
The value was “Gel-like on the wall”.

And the “XRPD Result Day 3” value [3, 15]?
Its value is “Form IV”.

What about the “XRPD Result Day 7” value [3, 15] of the same compound?
The value was “Form IV”.

And the “XRPD Result Day 3” value ([3]; slurry at RT, Water)?
The value was “Form I”.

And the “XRPD Result Day 7” value ([3]; slurry at RT, Water)?
The value was “Form I”.

And the “Estimated Solubility” value ([4]; CYH)?
The value was <1000 µg/mL.

And the “Estimated Solubility” value ([4]; Heptane)?
The value was <1000 µg/mL.

What about the “Estimated Solubility” value ([4]; IPE) of the same compound?
The value was <1000 µg/mL.

What about the “Estimated Solubility” value ([4]; Water) of the same compound?
Its value is <1000 µg/mL.

What about the Estimated Solubility ([4]; visual observation, most tested solvents) of the same compound?
Its Estimated Solubility is > 100000 µg/mL.

What about the “XRPD Result (6 d)” value [5] of the same compound?
The value was “Form IV (6 d)”.

With [2H]C([2H])(Oc1cc(C)n(-c2c(C)cnc(-n3ccc(C(C)(C)O)n3)c2F)c(=O)c1Cl)c1ncc(F)cc1F [Form VIII] as the compound, how does the “Output of competitive slurry (XRPD)” value ([2]; Water, 1 d) read?
Its value is “Form I”.
